The text below walks through data of BindingDB's records for doi:10.1021/jm0009181 (National Center For Genetic Engineering and Biotechnology …, 2000).

Each structure is given as a SMILES string.

For the experiment, the target named is Bifunctional dihydrofolate reductase-thymidylate synthase (Plasmodium falciparum, UniProt A7UD81). Briefly: Evaluated for inhibition constant (Ki wt) against Wild-type dihydrofolate reductase of Plasmodium falciparum.
Bifunctional dihydrofolate reductase-thymidylate synthase, sequence (A7UD81 whole entry): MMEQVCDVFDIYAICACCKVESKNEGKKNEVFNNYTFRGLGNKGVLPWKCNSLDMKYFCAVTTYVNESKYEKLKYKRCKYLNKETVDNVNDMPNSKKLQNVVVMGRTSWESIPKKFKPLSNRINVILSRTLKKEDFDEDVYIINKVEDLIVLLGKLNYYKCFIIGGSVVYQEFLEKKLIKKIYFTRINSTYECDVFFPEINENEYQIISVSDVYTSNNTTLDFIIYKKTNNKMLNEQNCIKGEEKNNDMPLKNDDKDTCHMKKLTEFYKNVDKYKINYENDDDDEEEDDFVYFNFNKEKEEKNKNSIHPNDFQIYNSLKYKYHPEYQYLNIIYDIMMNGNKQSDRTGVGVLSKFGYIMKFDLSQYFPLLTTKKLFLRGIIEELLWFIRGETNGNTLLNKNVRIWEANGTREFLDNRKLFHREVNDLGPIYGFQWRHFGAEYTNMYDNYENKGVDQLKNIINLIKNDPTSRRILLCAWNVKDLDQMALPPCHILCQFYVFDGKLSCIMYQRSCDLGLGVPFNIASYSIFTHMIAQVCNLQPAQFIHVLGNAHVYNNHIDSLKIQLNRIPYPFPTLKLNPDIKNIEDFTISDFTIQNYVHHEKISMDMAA

A word on the Ki: it is a measure of affinity in units of concentration, obtained from inhibition or displacement. A high value points to weaker binding. In turn, `CC1N=C(N)N=C(N)N1c1ccc(Cl)c(Cl)c1` (stereo unspecified) [1-(3,4-Dichloro-phenyl)-6-methyl-1,6-dihydro-[1,3,5]triazine-2,4-diamine] displayed a Ki of 1.4 nM.
The result for `CC1(C)N=C(N)N=C(N)N1c1ccc(Br)cc1` [1-(4-Bromo-phenyl)-6,6-dimethyl-1,6-dihydro-[1,3,5]triazine-2,4-diamine] reads 1.1 nM; that for `CCC1N=C(N)N=C(N)N1c1ccc(Br)cc1` (stereo unspecified) [1-(4-Bromo-phenyl)-6-ethyl-1,6-dihydro-[1,3,5]triazine-2,4-diamine], 5.7 nM.
The figure for `CC(C)C1N=C(N)N=C(N)N1c1ccc(Br)cc1` (stereo unspecified) [1-(4-Bromo-phenyl)-6-isopropyl-1,6-dihydro-[1,3,5]triazine-2,4-diamine] is 30 nM; for `CC1N=C(N)N=C(N)N1c1ccc(Br)cc1` (stereo unspecified) [1-(4-Bromo-phenyl)-6-methyl-1,6-dihydro-[1,3,5]triazine-2,4-diamine] it is 5.7 nM.
The figure for `NC1=NC(c2ccccc2)N(c2ccc(Br)cc2)C(N)=N1` (stereo unspecified) [1-(4-Bromo-phenyl)-6-phenyl-1,6-dihydro-[1,3,5]triazine-2,4-diamine] is 2.9 nM; for `CCCC1N=C(N)N=C(N)N1c1ccc(Br)cc1` (stereo unspecified) [1-(4-Bromo-phenyl)-6-propyl-1,6-dihydro-[1,3,5]triazine-2,4-diamine] it is 2.6 nM.
As for `NC1=NCN(c2ccc(Cl)cc2)C(N)=N1` [1-(4-Chloro-phenyl)-1,6-dihydro-[1,3,5]triazine-2,4-diamine], affinity was put at a Ki of 24.4 nM.
The molecule `CCC1N=C(N)N=C(N)N1c1ccc(Cl)cc1` (stereo unspecified) [1-(4-Chloro-phenyl)-6-ethyl-1,6-dihydro-[1,3,5]triazine-2,4-diamine] came in with a Ki of 3.6 nM.
The result for `CC(C)C1N=C(N)N=C(N)N1c1ccc(Cl)cc1` (stereo unspecified) [1-(4-Chloro-phenyl)-6-isopropyl-1,6-dihydro-[1,3,5]triazine-2,4-diamine] reads 60.5 nM; that for `CCCC1N=C(N)N=C(N)N1c1ccc(Cl)cc1` (stereo unspecified) [1-(4-Chloro-phenyl)-6-propyl-1,6-dihydro-[1,3,5]triazine-2,4-diamine], 4.6 nM; that for `NC1=NCN(c2ccc(F)cc2)C(N)=N1` [1-(4-Fluoro-phenyl)-1,6-dihydro-[1,3,5]triazine-2,4-diamine], 270 nM.
The result for `CC1(C)N=C(N)N=C(N)N1c1ccc(F)cc1` [1-(4-Fluoro-phenyl)-6,6-dimethyl-1,6-dihydro-[1,3,5]triazine-2,4-diamine] reads 4.6 nM; that for `NC1=NCN(c2ccccc2)C(N)=N1` [1-Phenyl-1,6-dihydro-[1,3,5]triazine-2,4-diamine], 329 nM; that for `CC1(C)N=C(N)N=C(N)N1c1ccccc1` [6,6-Dimethyl-1-phenyl-1,6-dihydro-[1,3,5]triazine-2,4-diamine], 20 nM.
The result for `CCCCC1N=C(N)N=C(N)N1c1ccc(Cl)cc1` (stereo unspecified) [6-Butyl-1-(4-chloro-phenyl)-1,6-dihydro-[1,3,5]triazine-2,4-diamine] reads 3.7 nM.
`CCC1N=C(N)N=C(N)N1c1ccc(C)cc1` (stereo unspecified) [6-Ethyl-1-p-tolyl-1,6-dihydro-[1,3,5]triazine-2,4-diamine] returned a Ki of 5.9 nM.
The figure for `Cc1ccc(N2C(N)=NC(N)=NC2C(C)C)cc1` (stereo unspecified) [6-Isopropyl-1-p-tolyl-1,6-dihydro-[1,3,5]triazine-2,4-diamine] is 167 nM; for `Cc1ccc(N2C(N)=NC(N)=NC2C)cc1` (stereo unspecified) [6-Methyl-1-p-tolyl-1,6-dihydro-[1,3,5]triazine-2,4-diamine] it is 23 nM.
The result for `Cc1ccc(N2C(N)=NC(N)=NC2c2ccccc2)cc1` (stereo unspecified) [6-Phenyl-1-p-tolyl-1,6-dihydro-[1,3,5]triazine-2,4-diamine] reads 7.7 nM; that for `CCCC1N=C(N)N=C(N)N1c1ccc(C)cc1` (stereo unspecified) [6-Propyl-1-p-tolyl-1,6-dihydro-[1,3,5]triazine-2,4-diamine], 13.7 nM.
